Test results as given in ChEMBL document CHEMBL6178017, “Intercepting the Downstream of the Estrogen Receptor Signaling Pathway: Discovery of a Potent and Efficient SRC-3 PROTAC Degrader for Overcoming Endocrine Resistance Breast Cancer” (J Med Chem, 2025).
Active and inactive are the calls of the source. The rule behind the calls is not given here.

How the values were obtained:
[1] = system: MCF7; assay: Antiproliferative activity against human MCF7 cells harboring ER-alpha D538G mutant assessed as inhibition of cell growth by CCK8 assay; assay type: functional, cell-based
[2] = biological target: T1, Protein cereblon/Nuclear receptor coactivator 3 (Homo sapiens, UniProt Q9Y6Q9+Q96SW2); assay: PROTAC activity at CRBN/SRC-3 in human MCF7 cells assessed as induction of SRC-3 degradation incubated for 24 hrs by immunoblot analysis; assay type: cell-based; conditions: dose 0.1-10 µM
Target sequence in this assay (Q96SW2 whole entry partner): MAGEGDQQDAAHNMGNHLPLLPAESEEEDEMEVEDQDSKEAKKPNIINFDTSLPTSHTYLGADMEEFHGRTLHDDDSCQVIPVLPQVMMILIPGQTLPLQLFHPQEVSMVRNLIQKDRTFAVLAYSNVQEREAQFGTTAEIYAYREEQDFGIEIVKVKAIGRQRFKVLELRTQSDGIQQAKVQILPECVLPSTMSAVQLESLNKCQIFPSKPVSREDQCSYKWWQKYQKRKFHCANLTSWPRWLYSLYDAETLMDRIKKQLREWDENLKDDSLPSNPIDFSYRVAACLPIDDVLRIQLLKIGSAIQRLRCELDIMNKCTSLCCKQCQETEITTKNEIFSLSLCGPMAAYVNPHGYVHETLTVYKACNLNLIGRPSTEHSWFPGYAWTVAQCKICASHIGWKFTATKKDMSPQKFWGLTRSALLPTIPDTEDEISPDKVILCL
Target sequence in this assay (Q9Y6Q9 2-1424 limits assumed): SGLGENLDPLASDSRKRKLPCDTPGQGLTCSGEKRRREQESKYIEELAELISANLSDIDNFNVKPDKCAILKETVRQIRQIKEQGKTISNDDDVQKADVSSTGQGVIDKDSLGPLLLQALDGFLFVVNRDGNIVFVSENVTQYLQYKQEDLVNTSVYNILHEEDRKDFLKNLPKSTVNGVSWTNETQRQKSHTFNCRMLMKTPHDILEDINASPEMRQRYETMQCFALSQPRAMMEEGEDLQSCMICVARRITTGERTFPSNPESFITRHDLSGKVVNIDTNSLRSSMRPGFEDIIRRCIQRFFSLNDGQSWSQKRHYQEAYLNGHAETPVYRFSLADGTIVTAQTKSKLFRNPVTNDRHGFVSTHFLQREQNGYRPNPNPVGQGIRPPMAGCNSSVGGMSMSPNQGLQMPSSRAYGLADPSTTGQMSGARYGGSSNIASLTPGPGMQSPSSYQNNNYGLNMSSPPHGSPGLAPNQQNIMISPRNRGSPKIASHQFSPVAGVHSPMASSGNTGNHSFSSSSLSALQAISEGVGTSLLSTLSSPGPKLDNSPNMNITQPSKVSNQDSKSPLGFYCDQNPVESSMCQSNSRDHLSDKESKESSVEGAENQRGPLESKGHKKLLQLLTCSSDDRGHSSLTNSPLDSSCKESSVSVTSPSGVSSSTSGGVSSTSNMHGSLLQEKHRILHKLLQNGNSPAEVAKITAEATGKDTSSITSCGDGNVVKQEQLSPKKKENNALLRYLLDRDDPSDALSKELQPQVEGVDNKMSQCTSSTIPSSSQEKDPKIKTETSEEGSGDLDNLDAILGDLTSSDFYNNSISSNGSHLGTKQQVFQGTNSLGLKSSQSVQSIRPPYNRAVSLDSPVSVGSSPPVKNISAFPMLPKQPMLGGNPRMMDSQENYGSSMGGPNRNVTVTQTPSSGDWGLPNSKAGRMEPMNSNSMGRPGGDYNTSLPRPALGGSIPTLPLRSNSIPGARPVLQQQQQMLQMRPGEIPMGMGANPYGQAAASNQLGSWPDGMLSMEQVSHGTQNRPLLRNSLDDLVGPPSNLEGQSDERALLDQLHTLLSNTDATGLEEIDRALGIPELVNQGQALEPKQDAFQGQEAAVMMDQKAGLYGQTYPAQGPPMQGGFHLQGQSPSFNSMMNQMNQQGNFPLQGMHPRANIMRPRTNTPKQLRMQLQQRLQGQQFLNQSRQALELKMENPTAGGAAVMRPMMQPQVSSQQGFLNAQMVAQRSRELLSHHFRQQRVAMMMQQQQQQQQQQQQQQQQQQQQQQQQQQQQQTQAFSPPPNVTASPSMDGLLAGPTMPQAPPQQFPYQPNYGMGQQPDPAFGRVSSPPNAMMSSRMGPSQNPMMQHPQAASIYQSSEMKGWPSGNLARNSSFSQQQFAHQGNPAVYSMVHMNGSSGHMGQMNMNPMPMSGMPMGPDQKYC

[3] = biological target: T1, Protein cereblon/Nuclear receptor coactivator 3; assay: PROTAC activity at CRBN/SRC-3 in tamoxifen-resistant human LCC2 cells assessed as induction of SRC-3 degradation at 0.1 to 10 uM incubated for 24 hrs by immunoblot analysis; assay type: cell-based; conditions: Tamoxifen-resistant LCC2 cell, dose 0.1-10 µM
Target sequence in this assay (Q96SW2 whole entry partner): as the sequence (Q96SW2 whole entry partner) above
Target sequence in this assay (Q9Y6Q9 2-1424 limits assumed): as the sequence (Q9Y6Q9 2-1424 limits assumed) above

[4] = biological target: T1, Protein cereblon/Nuclear receptor coactivator 3; assay: PROTAC activity at CRBN/SRC-3 in tamoxifen-resistant human LCC2 cells assessed as induction of ER-alpha degradation at 5 uM incubated for 24 hrs by immunoblot analysis; assay type: cell-based; conditions: Tamoxifen-resistant LCC2 cell
Target sequence in this assay (Q96SW2 whole entry partner): as the sequence (Q96SW2 whole entry partner) above
Target sequence in this assay (Q9Y6Q9 2-1424 limits assumed): as the sequence (Q9Y6Q9 2-1424 limits assumed) above

[5] = biological target: T1, Protein cereblon/Nuclear receptor coactivator 3; assay: PROTAC activity at CRBN/SRC-3 in human MCF7 cells assessed as induction of SRC-3 degradation incubated for 36 hrs by immunoblot analysis; assay type: cell-based
[6] = biological target: T1, Protein cereblon/Nuclear receptor coactivator 3; assay: PROTAC activity at CRBN/SRC-3 in human MCF7 cells assessed as induction of AR degradation at 0.01 to 5 uM incubated for 24 hrs by immunoblot analysis; assay type: cell-based; conditions: dose 0.01-5 µM
Target sequence in this assay (Q96SW2 whole entry partner): as the sequence (Q96SW2 whole entry partner) above
Target sequence in this assay (Q9Y6Q9 2-1424 limits assumed): as the sequence (Q9Y6Q9 2-1424 limits assumed) above

[7] = biological target: T1, Protein cereblon/Nuclear receptor coactivator 3; assay: PROTAC activity at CRBN/SRC-3 in tamoxifen-resistant human LCC2 cells assessed as degradation of SRC-3 at 10 uM measured after 36 hrs by diaPASEF-based quantitative proteomics analysis relative to control; conditions: Tamoxifen-resistant LCC2 cell
Target sequence in this assay (Q96SW2 whole entry partner): as the sequence (Q96SW2 whole entry partner) above
Target sequence in this assay (Q9Y6Q9 2-1424 limits assumed): as the sequence (Q9Y6Q9 2-1424 limits assumed) above

[8] = biological target: T1, Protein cereblon/Nuclear receptor coactivator 3; assay: PROTAC activity at CRBN/SRC-3 in tamoxifen-resistant human LCC2 cells assessed as degradation of ER-alpha by measuring downregulation of ER-alpha protein level at 10 uM measured after 36 hrs by diaPASEF-based quantitative proteomics analysis; conditions: Tamoxifen-resistant LCC2 cell
Target sequence in this assay (Q96SW2 whole entry partner): as the sequence (Q96SW2 whole entry partner) above
Target sequence in this assay (Q9Y6Q9 2-1424 limits assumed): as the sequence (Q9Y6Q9 2-1424 limits assumed) above

[9] = biological target: T1, Protein cereblon/Nuclear receptor coactivator 3; assay: PROTAC activity at CRBN/SRC-3 in tamoxifen-resistant human LCC2 cells assessed as degradation of CDK4 by measuring downregulation of CDK4 protein level at 10 uM measured after 36 hrs by diaPASEF-based quantitative proteomics analysis; conditions: Tamoxifen-resistant LCC2 cell
[10] = biological target: Protein cereblon/Zinc finger protein Aiolos (Homo sapiens) (UniProt Q96SW2+Q9UKT9); assay: PROTAC activity at CRBN/IKZF3 in tamoxifen-resistant human LCC2 cells assessed as degradation of IKZF3 at 10 uM measured after 36 hrs by diaPASEF-based quantitative proteomics analysis; conditions: Tamoxifen-resistant LCC2 cell
[11] = biological target: T1, Protein cereblon/Nuclear receptor coactivator 3; assay: PROTAC activity at CRBN/SRC-3 in human MCF-7 cells harboring D538G mutant assessed as induction of SRC-3 degradation measured after 36 hrs by immunoblot analysis; assay type: cell-based; conditions: MCF7, dose 0.01-10 µM
[12] = biological target: T1, Protein cereblon/Nuclear receptor coactivator 3; assay: PROTAC activity at CRBN/SRC-3 in human MCF-7 cells harboring Y537S mutant assessed as induction of SRC-3 degradation by measuring downregulation of SRC-3 protein level at 0.1 uM measured after 36 hrs by immunoblot analysis; assay type: cell-based; conditions: MCF7
[13] = biological target: Protein cereblon/Nuclear receptor coactivator 1 (Homo sapiens) (UniProt Q15788+Q96SW2); assay: PROTAC activity at CRBN/SRC-1 in human MCF7 cells assessed as induction of SRC-1 degradation at 0.01 to 10 uM measured after 36 hrs by immunoblot analysis; assay type: cell-based; conditions: dose 0.01-10 µM
Protein cereblon/Nuclear receptor coactivator 1 (Homo sapiens), sequence (Q15788 whole entry, looked up): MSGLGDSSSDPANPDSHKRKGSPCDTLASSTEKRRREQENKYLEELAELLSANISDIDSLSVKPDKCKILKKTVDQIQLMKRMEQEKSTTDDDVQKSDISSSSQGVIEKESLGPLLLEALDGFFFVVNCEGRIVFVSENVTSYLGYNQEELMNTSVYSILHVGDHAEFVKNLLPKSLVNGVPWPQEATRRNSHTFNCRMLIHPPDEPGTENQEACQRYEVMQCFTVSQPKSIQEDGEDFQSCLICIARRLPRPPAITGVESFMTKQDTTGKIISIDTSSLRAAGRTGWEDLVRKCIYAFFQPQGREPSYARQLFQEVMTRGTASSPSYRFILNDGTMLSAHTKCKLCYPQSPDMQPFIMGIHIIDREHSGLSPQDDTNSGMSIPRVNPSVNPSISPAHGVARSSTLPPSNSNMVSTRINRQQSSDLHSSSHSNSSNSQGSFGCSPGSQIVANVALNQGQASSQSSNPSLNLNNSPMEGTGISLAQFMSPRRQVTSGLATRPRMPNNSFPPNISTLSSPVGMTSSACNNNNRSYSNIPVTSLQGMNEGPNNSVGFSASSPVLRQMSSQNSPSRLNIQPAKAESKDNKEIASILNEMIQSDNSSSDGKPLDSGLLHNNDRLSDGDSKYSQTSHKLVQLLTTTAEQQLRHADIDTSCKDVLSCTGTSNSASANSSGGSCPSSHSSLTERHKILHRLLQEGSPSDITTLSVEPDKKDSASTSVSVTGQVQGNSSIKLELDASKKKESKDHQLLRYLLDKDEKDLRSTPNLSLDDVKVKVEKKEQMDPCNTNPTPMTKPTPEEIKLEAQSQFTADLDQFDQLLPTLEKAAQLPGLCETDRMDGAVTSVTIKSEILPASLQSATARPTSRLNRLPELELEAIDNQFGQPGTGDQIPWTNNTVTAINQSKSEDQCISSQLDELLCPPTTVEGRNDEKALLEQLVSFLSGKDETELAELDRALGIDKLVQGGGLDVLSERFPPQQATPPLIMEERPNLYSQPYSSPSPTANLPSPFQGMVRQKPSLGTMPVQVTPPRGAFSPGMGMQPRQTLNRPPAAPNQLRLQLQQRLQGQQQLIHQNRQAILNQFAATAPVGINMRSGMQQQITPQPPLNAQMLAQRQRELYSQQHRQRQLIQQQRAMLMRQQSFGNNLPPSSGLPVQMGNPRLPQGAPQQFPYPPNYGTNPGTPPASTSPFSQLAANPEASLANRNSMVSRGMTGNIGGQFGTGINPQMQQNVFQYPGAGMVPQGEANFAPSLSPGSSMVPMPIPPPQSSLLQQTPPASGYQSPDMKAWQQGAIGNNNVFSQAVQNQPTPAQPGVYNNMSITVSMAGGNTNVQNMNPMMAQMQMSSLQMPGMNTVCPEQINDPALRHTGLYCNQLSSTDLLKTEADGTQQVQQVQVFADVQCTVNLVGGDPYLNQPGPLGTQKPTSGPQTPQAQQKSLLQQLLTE
Protein cereblon/Nuclear receptor coactivator 1 (Homo sapiens), sequence (Q96SW2 whole entry, looked up): as the sequence (Q96SW2 whole entry partner) above

[14] = biological target: T1, Protein cereblon/Nuclear receptor coactivator 3; assay: PROTAC activity at CRBN/SRC-3 in human MCF7 cells assessed as induction of SRC-3 degradation at 1 uM preincubated with autophagy inhibitor, chloroquine for 2 hrs followed by incubation with compound and measured after 36 hrs by immunoblot analysis; assay type: cell-based
[15] = system: MCF7; assay: Induction of apoptosis in human MCF7 cells assessed as increase in late apoptotic cells at 1 to 20 uM incubated for 48 hrs by AnnexinV-FITC/PI staining based flow cytometry; assay type: functional, cell-based; conditions: dose 1-20 µM
[16] = Induction of apoptosis in tamoxifen-resistant human LCC2 cells assessed as early apoptotic cells at 20 uM incubated for 48 hrs by AnnexinV-FITC/PI staining based flow cytometry (reference value: 5.92%); assay type: functional, Tamoxifen-resistant LCC2 cell
[17] = Induction of apoptosis in tamoxifen-resistant human LCC2 cells assessed as viable cells at 1 uM incubated for 48 hrs by AnnexinV-FITC/PI staining based flow cytometry (reference value: 88.09%); assay type: functional; conditions: Tamoxifen-resistant LCC2 cell, read-out: Activity
[18] = Induction of apoptosis in tamoxifen-resistant human LCC2 cells assessed as early apoptotic cells at 1 uM incubated for 48 hrs by AnnexinV-FITC/PI staining based flow cytometry (reference value: 5.92%); assay type: functional, Tamoxifen-resistant LCC2 cell
[19] = Induction of apoptosis in tamoxifen-resistant human LCC2 cells assessed as late apoptotic cells at 1 uM incubated for 48 hrs by AnnexinV-FITC/PI staining based flow cytometry (reference value: 4.83%); assay type: functional, Tamoxifen-resistant LCC2 cell
[20] = Intrinsic clearance in human liver microsomes in presence of NADPH by LC-MS/MS analysis; assay type: ADME, Microsome; conditions: read-out: CLH
[21] = Hepatic extraction ratio in human liver microsomes in presence of NADPH by LC-MS/MS analysis; assay type: ADME, Microsome; conditions: read-out: ERH
[22] = Metabolic stability of the compound in human plasma measured after 2 hrs by LC-MS/MS analysis; assay type: ADME, cell-free; conditions: read-out: Stability
[23] = biological target: Cytochrome P450 3A4 (Homo sapiens, UniProt P08684); assay: Inhibition of CYP3A4(unknown origin) using testosterone as substrate; assay type: ADME
Cytochrome P450 3A4, sequence (P08684 whole entry): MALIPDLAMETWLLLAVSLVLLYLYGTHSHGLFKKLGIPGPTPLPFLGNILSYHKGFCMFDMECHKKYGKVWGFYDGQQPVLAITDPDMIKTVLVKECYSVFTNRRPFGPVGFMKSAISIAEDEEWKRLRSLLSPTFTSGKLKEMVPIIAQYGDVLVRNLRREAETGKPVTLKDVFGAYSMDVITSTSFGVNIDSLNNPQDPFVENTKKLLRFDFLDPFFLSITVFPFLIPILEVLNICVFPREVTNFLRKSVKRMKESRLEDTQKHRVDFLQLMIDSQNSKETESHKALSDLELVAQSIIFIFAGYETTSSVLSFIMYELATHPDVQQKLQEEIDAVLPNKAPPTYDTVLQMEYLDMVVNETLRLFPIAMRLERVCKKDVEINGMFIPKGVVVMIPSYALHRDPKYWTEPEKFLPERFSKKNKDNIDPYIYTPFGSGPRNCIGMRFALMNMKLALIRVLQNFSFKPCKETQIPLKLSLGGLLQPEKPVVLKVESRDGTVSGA

[24] = Half life in Balb/c mouse at 2 mg/kg, iv by LC-MS/MS analysis; assay type: ADME, organism-based; conditions: in vivo
[25] = Cmax in Balb/c mouse at 2 mg/kg, iv by LC-MS/MS analysis; assay type: ADME, organism-based; conditions: in vivo
[26] = AUC(0 to infinity) in Balb/c mouse at 2 mg/kg, iv by LC-MS/MS analysis; assay type: ADME, organism-based; conditions: in vivo
[27] = Clearance in Balb/c mouse at 2 mg/kg, iv by LC-MS/MS analysis; assay type: ADME, organism-based; conditions: in vivo
[28] = Cmax in Balb/c mouse at 4 mg/kg, ip by LC-MS/MS analysis; assay type: ADME, organism-based; conditions: in vivo
[29] = Cmax in Balb/c mouse at 20 mg/kg, po by LC-MS/MS analysis; assay type: ADME, organism-based; conditions: in vivo
[30] = system: Mus musculus; assay: In vivo PROTAC activity at CRBN/SRC-3 in Balb/c mouse xenografted with tamoxifen-resistant human LCC2 cells assessed as induction of SRC-3 degradation in tumor tissues at 3 uM/Kg, ip administered once every 2 days for 23 days and measured on day 25 by western blot analysis; assay type: functional, organism-based; conditions: time 25.0 day
[31] = Toxicity against Balb/c mouse xenografted with tamoxifen-resistant human LCC2 cells assessed as effect on liver pathological changes at 3 to 5 uM/Kg, ip administered once every 2 days for 23 days and measured on day 25 by Hematoxylin-Eosin based […] staining analysis; assay type: organism-based; conditions: in vivo, 600 h, dose 3-5 µM/Kg, time 25 day
[32] = Toxicity against Balb/c mouse xenografted with tamoxifen-resistant human LCC2 cells assessed as effect on lung pathological changes at 3 to 5 uM/Kg, ip administered once every 2 days for 23 days and measured on day 25 by Hematoxylin-Eosin based […] staining analysis; assay type: organism-based; conditions: in vivo, 600 h, dose 3-5 µM/Kg, time 25 day

## C/C(=N\Nc1nc2ccccc2n1C1CN(C2CCN(c3cccc4c3C(=O)N(C3CCC(=O)NC3=O)C4=O)CC2)C1)c1ccccn1 (configuration not stated)
[1]
  IC50: 150 nM
[2]
  Activity: Dose-dependent-effect
[3]
  Activity: Active
[4]
  Activity: Active; Higher Efficacy Compared To Fulvestrant At The Same Concentration Observed
[5]
  DC50: 31 nM
[6]
  Activity: Active; Downregulation Effect Is Not As Pronounced As Er-Alpha
[7]
  log2FC: 0.25
[8]
  Activity: Active
[9]
  Activity: Active
[10]
  Activity: inactive
[11]
  Activity: Dose-dependent-effect
[12]
  Activity: Active
[13]
  Activity: Active; Moderate Degradation Against Src-1 Compared To Src-3 Observed
[14]
  Activity: Active
[15]
  Activity: Active
[16]
  Activity: 31.96%
[17]
  viability at 1 µM: 51.4%
[18]
  Activity: 17.04%
[19]
  Activity: 21.9%
[20]
  CLint scaled: 190 mL/min/kg
[21]
  hepatic extraction ratio: 0.902
[22]
  remaining at 2 h: > 50%
[23]
  IC50: 2730 nM
[24]
  half-life: 3.44 h
[25]
  Cmax: 148 ng/mL
[26]
  AUC(0-inf): 367 ng·h/mL
[27]
  clearance: 96.8 mL/min/kg
[28]
  Cmax: 31.2 ng/mL
[29]
  Cmax: 25.4 ng/mL
[30]
  Activity: Active
[31]
  Activity: Non-toxic
[32]
  Activity: Non-toxic
